The values below come from BindingDB's records for patent WO2025049746 (Eikon Therapeutics, 2025).

SMILES strings stand for the structures.

In assay [1] the target is T1, Bifunctional 3'-5' exonuclease/ATP-dependent helicase WRN [480-1251] (UniProt Q14191).
T1 construct: 480-1251
The experiment in a line: Biochemical Activity Assays.

Assay [2] has as its target Bifunctional 3'-5' exonuclease/ATP-dependent helicase WRN (Homo sapiens, UniProt Q14191). The experiment in a line: ADP-Glo Kinase Assay. The protocol: ATPase activity was measured using the ADP-Glo Kinase Assay following the manufacturers recommended protocol.
In general terms: ADP-Glo turns the ADP formed in a reaction into a luminescent signal.

Sequence of Bifunctional 3'-5' exonuclease/ATP-dependent helicase WRN (Q14191 whole entry): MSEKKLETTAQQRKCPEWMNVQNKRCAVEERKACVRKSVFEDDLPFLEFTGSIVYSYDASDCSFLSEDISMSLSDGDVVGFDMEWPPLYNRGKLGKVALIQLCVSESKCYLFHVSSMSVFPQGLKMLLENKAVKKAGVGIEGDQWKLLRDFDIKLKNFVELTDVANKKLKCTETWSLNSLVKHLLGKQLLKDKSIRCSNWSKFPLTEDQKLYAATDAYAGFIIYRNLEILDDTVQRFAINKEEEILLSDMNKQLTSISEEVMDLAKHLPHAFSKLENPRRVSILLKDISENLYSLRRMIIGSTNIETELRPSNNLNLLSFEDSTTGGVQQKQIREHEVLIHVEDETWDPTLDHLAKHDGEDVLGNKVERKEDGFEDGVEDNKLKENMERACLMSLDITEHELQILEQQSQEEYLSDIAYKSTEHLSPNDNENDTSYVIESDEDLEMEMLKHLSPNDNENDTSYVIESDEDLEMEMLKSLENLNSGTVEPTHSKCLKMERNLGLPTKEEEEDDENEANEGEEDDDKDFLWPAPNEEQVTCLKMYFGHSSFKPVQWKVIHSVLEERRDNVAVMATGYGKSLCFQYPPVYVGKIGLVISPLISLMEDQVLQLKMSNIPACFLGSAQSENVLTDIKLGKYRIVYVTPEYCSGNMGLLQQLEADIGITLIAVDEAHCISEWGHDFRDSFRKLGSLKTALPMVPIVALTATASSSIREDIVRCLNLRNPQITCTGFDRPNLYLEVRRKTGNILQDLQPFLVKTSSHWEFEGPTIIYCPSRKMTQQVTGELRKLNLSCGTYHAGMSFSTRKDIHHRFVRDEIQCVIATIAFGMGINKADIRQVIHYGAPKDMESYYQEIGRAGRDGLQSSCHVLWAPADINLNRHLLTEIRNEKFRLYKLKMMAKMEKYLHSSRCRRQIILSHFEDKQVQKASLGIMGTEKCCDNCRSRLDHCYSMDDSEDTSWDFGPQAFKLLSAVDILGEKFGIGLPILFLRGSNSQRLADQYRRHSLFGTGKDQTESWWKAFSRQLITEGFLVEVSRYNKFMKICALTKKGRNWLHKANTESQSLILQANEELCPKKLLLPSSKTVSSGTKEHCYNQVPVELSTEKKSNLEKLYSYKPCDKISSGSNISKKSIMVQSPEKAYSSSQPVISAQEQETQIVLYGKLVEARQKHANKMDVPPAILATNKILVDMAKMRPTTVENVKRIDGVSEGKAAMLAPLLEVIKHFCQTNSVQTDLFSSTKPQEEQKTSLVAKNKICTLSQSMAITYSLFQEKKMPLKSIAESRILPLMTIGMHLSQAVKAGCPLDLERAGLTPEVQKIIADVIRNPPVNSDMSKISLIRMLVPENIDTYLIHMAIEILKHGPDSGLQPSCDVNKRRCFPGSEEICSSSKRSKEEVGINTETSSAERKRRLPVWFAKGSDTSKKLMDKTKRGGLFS
T1 sequence (Q14191 480-1251): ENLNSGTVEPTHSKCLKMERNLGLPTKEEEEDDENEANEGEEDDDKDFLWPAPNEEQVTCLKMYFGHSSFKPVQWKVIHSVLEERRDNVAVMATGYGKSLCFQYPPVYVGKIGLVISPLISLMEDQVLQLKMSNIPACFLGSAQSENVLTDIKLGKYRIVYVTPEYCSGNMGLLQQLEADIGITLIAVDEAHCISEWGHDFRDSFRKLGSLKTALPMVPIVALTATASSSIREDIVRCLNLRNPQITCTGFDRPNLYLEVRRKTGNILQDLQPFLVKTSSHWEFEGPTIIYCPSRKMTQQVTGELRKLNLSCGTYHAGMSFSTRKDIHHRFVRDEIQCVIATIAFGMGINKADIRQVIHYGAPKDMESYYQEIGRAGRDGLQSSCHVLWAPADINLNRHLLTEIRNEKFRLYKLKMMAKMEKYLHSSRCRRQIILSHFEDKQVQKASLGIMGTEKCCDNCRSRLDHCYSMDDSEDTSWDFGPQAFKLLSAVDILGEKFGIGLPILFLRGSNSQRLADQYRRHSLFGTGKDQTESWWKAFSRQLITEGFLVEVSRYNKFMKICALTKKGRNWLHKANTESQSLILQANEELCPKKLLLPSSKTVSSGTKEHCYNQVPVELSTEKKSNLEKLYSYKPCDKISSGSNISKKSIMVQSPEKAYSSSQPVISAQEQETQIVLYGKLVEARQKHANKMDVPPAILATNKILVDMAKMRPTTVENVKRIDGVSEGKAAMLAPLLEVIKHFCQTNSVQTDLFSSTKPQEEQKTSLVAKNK

Regarding `CCc1c(N2CCN(C(=O)c3ncnc(C)c3O)CC2)c(=O)n2nc(-c3ccc4c(c3)C(=O)N(C)C4)nc2n1CC(=O)Nc1ccc(C(F)(F)F)cc1Cl` [WO2025049746, Example 186], the figures for the IC50 in assay [1] and in assay [2] were 0.045 µM and 0.052 µM, respectively.
For `CCc1c(N2CCN(C(=O)c3cccc4c3NS(=O)(=O)CC4)CC2)c(=O)n2nc(-c3ccc4c(c3)COC4)nc2n1CC(=O)Nc1ccc(C(F)(F)F)cc1Cl` [WO2025049746, Example 425], the figures for the IC50 in assay [1] and in assay [2] were 0.027 µM and 0.034 µM, respectively.
Regarding `CCc1c(N2CCN(C(=O)c3ncnc(C)c3O)CC2)c(=O)n2nc(-c3cc(F)c4nc(C)oc4c3)nc2n1CC(=O)Nc1ccc(C(F)(F)F)cc1Cl` [WO2025049746, Example 297], the IC50 was 0.032 µM in assay [1] and 0.031 µM in assay [2].
Take `CCc1c(N2CCN(C(=O)c3nc4c(cc3O)COCC4)CC2)c(=O)n2nc(-c3ccc4c(c3)COC4)nc2n1CC(=O)Nc1ccc(C(F)(F)F)cc1Cl` [WO2025049746, Example 440]: the half-inhibitory concentration (IC50) in assay [1] is 0.048 µM; in assay [2] it was 0.046 µM.
Take `CCc1c(N2CCN(C(=O)c3ncnc(C)c3O)CC2)c(=O)n2nc(-c3ccc4c(c3)COC4)nc2n1CC(=O)Nc1c(Cl)cc(C(F)(F)F)c2ccoc12` [WO2025049746, Example 447]: the IC50 in assay [1] and in assay [2] was 0.038 µM in each case.
Regarding `CCc1c(N2CCN(C(=O)c3ncnc(C)c3O)CC2)c(=O)n2nc(-c3ccc4c(c3)CSC4)nc2n1CC(=O)Nc1ccc(C(F)(F)F)cc1Cl` [WO2025049746, Example 257], the IC50 in assay [1] stood at 0.03 µM; in assay [2], 0.028 µM.
On to `CCc1c(N2CCN(C(=O)c3ncnc(C)c3O)CC2)c(=O)n2nc(-c3cc(F)c4c(c3)COC4(C)C)nc2n1CC(=O)Nc1ccc(C(F)(F)F)cc1Cl` [WO2025049746, Example 212], for which the IC50 in assay [1] was determined as 0.073 µM; in assay [2] it was 0.086 µM.
The matching figures for `CCc1c(N2CCN(C(=O)c3ncnc(C)c3O)CC2)c(=O)n2nc(-c3ccc4c(c3)COC4)nc2n1CC(=O)Nc1ccc(Cl)c(OC(F)F)c1Cl` [WO2025049746, Example 407]: 0.025 µM and 0.03 µM.
In the case of `CCc1c(N2CCN(C(=O)c3cccc4[nH]c(=O)[nH]c34)CC2)c(=O)n2nc(C3=CCOCC3)nc2n1CC(=O)Nc1ccc(C(F)(F)F)cc1Cl` [WO2025049746, Example 51], the results for the IC50 in assay [1] and in assay [2] were 0.0439 µM and 0.0571 µM, respectively.
For the molecule `CCc1c(N2CCN(C(=O)c3ncnc(C)c3O)CC2)c(=O)n2nc(-c3cccc4sc(C)nc34)nc2n1CC(=O)Nc1ccc(C(F)(F)F)cc1Cl` [WO2025049746, Example 156], the IC50 in assay [1] worked out at 0.037 µM; in assay [2] it was 0.052 µM.
Take `CCc1c(N2CCN(C(=O)c3ncnc(C)c3O)CC2)c(=O)n2nc(-c3ccc4nn(C)c(C)c4c3)nc2n1CC(=O)Nc1ccc(C(F)(F)F)cc1Cl` [WO2025049746, Example 298]: the IC50 was 0.029 µM in assay [1] and 0.031 µM in assay [2].
As for `CCc1c(N2CCN(C(=O)c3ncnc(C)c3O)CC2)c(=O)n2nc(-c3cccc4c3CCO4)nc2n1CC(=O)Nc1ccc(C(F)(F)F)cc1Cl` [WO2025049746, Example 348], the IC50 in assay [1] turned out to be 0.062 µM; in assay [2], 0.086 µM.
The matching figures for `CCc1c(N2CCN(C(=O)c3ncnc(C)c3O)CC2)c(=O)n2nc(N(C)C)nc2n1CC(=O)Nc1ccc(C(F)(F)F)cc1Cl` [WO2025049746, Example 30]: 0.0372 µM and 0.053 µM.
Turning to `CCc1c(N2CCN(C(=O)c3ncnc(C)c3O)[C@H](C)C2)c(=O)n2nc(-c3ccc4c(c3)COC4(C)C)nc2n1CC(=O)Nc1ccc(C(F)(F)F)cc1Cl` [WO2025049746, Example 457], the IC50 in assay [1] stood at 0.04 µM; in assay [2] it was 0.039 µM.
Regarding `CCc1c(N2CCN(C(=O)c3ncnc(C)c3O)CC2)c(=O)n2nc(-c3ccc4c(c3)CCN(C)C4)nc2n1CC(=O)Nc1ccc(C(F)(F)F)cc1Cl` [WO2025049746, Example 294], the IC50 in assay [1] amounted to 0.048 µM; in assay [2] it was 0.044 µM.
As to `Cc1ncnc(C(=O)N2CCN(c3c4n(c5nc(-c6ccc7c(c6)COC7(C)C)nn5c3=O)[C@H](C(=O)Nc3ccc(C(F)(F)F)cc3Cl)C[C@@H]4C)CC2)c1O` [WO2025049746, Example 471], the concentration for half-maximal inhibition (IC50) was 1.81 µM in assay [1] and 1.79 µM in assay [2].
The matching figures for `CCc1c(N2CCN(C(=O)c3ncnc(C)c3O)CC2)c(=O)n2nc(N3CC(OC)C3)nc2n1CC(=O)Nc1ccc(C(F)(F)F)cc1Cl` [WO2025049746, Example 27]: 0.056 µM and 0.0863 µM.
In the case of `CCc1c(N2CCN(C(=O)c3nccc4cc[nH]c34)CC2)c(=O)n2nc(-c3ccc4c(c3)COC4(C)C)nc2n1CC(=O)Nc1ccc(C(F)(F)F)cc1Cl` [WO2025049746, Example 454], the IC50 in assay [1] stood at 0.373 µM; in assay [2] it was 0.49 µM.
Turning to `CCc1c(N2CCN(C(=O)c3ncnc(C)c3O)CC2)c(=O)n2nc(C3=CCOCC3)nc2n1CC(=O)Nc1ccc(OC(F)F)cc1F` [WO2025049746, Example 369], the IC50 in assay [1] worked out at 0.077 µM; in assay [2], 0.085 µM.
For `CCc1c(N2CCN(C(=O)c3ncnc(C)c3O)CC2)c(=O)n2nc(N(C)C)nc2n1CC(=O)Nc1ccc(C(F)(F)F)c2c1CC2` [WO2025049746, Example 104], the figures for the IC50 in assay [1] and in assay [2] were 0.0228 µM and 0.0269 µM, respectively.
For the molecule `CCc1c(N2CCN(C(=O)c3ncnc(C)c3O)CC2)c(=O)n2nc(-c3ccc4conc4c3)nc2n1CC(=O)Nc1ccc(C(F)(F)F)cc1Cl` [WO2025049746, Example 265], the IC50 in assay [1] and in assay [2] was 0.04 µM throughout.
With `CCc1c(N2CCN(C(=O)c3ncnc(C)c3O)CC2)c(=O)n2nc(-c3ccc4nc(NC)oc4c3)nc2n1CC(=O)Nc1ccc(C(F)(F)F)cc1Cl` [WO2025049746, Example 307], the IC50 in assay [1] and in assay [2] was 0.032 µM in each case.
For `CCc1c(N2CCCN(C(=O)c3ncnc(C)c3O)CC2)c(=O)n2nc(C3=CCOCC3)nc2n1CC(=O)Nc1ccc(C(F)(F)F)cc1Cl` [WO2025049746, Example 340], the IC50 in assay [1] amounted to 0.093 µM; in assay [2], 0.166 µM.
For `CCc1c(N2CCN(C(=O)c3ncnc(C)c3O)CC2)c(=O)n2nc(-c3ccc4c(c3)CC(=O)N4C)nc2n1CC(=O)Nc1ccc(C(F)(F)F)cc1Cl` [WO2025049746, Example 271], in that order: 0.035 µM and 0.028 µM.
For `CCc1c(N2CCN(C(=O)c3ncnc(C)c3O)CC2)c(=O)n2nc(-c3cc4ccnn4cc3F)nc2n1CC(=O)Nc1ccc(C(F)(F)F)cc1Cl` [WO2025049746, Example 242], the IC50 amounted to 0.018 µM in assay [1] and 0.019 µM in assay [2].
On to `CCc1c(N2CCN(C(=O)c3ncnc(C)c3O)CC2)c(=O)n2nc(N3CC4(COC4)C3)nc2n1CC(=O)Nc1ccc(C(F)(F)F)cc1Cl` [WO2025049746, Example 26], for which the IC50 is 0.0621 µM in assay [1] and 0.0768 µM in assay [2].
Regarding `CCc1c(N2CCN(C(=O)c3nccc(C)c3N)CC2)c(=O)n2nc(C3=CCOCC3)nc2n1CC(=O)Nc1ccc(C(F)(F)F)cc1Cl` [WO2025049746, Example 36], the IC50 in assay [1] was 0.0383 µM; in assay [2] it was 0.0429 µM.
Consider `CCc1c(N2CCN(C(=O)c3ccnc(C)c3O)CC2)c(=O)n2nc(-c3ccc4c(c3)COC4(C)C)nc2n1CC(=O)Nc1ccc(C(F)(F)F)cc1Cl` [WO2025049746, Example 455], for which the IC50 in assay [1] was determined as 0.048 µM; in assay [2], 0.04 µM.
For `CCc1c(N2CCN(C(=O)c3ncnc(C)c3O)CC2)c(=O)n2nc(C3=CCOCC3)nc2n1CC(=O)Nc1ccc(C(F)(F)F)c2cccnc12` [WO2025049746, Example 360], in that order: 1.99 µM and 2.14 µM.
For `CCc1c(N2CCN(C(=O)c3nccc4nc[nH]c34)CC2)c(=O)n2nc(N(C)C)nc2n1CC(=O)Nc1ccc(C(F)(F)F)c2c1CC2` [WO2025049746, Example 108], in that order: 0.0155 µM and 0.0218 µM.
As for `CCc1c(N2CCN(C(=O)c3ncnc(C)c3O)CC2)c(=O)n2nc(-c3ccc4c(c3)COC4)nc2n1CC(=O)Nc1c(Cl)cc(C(F)(F)F)cc1OC1CC1` [WO2025049746, Example 414], the results for the IC50 in assay [1] and in assay [2] were 1.13 µM and 2.37 µM, respectively.
The matching figures for `CCc1c(N2CCN(C(=O)c3ncnc(C)c3O)CC2)c(=O)n2nc(-c3ccc4c(c3)CCN4C)nc2n1CC(=O)Nc1ccc(C(F)(F)F)cc1Cl` [WO2025049746, Example 199]: 0.032 µM and 0.04 µM.
In the case of `CCc1c(N2CCN(C(=O)c3ncnc(C)c3O)CC2)c(=O)n2nc(-c3cccc4c3cnn4C)nc2n1CC(=O)Nc1ccc(C(F)(F)F)cc1Cl` [WO2025049746, Example 22], the IC50 in assay [1] stood at 0.0294 µM; in assay [2] it was 0.0371 µM.
As for `CCC1=C(N2CCN(C(=O)C3=C4NN=CC4CC=N3)CC2)C(=O)N2N=C(C3CCOCC3)NC2N1CC(=O)Nc1ccc(C(F)(F)F)cc1Cl` (stereo not drawn) [WO2025049746, Example 41], the IC50 in assay [1] was determined as 0.0569 µM; in assay [2], 0.0839 µM.
Consider `CCc1c(N2CCN(C(=O)c3ncnc(C)c3O)CC2)c(=O)n2nc(-c3ccc4c(c3)C(C)(C)CO4)nc2n1CC(=O)Nc1ccc(C(F)(F)F)cc1Cl` [WO2025049746, Example 193], for which the IC50 in assay [1] is 0.053 µM; in assay [2] it was 0.073 µM.
In the case of `CCc1c(N2CCN(C(=O)c3ncnc(C)c3O)CC2)c(=O)n2nc(-c3ccn4nccc4c3F)nc2n1CC(=O)Nc1ccc(C(F)(F)F)cc1Cl` [WO2025049746, Example 241], the IC50 in assay [1] was 0.019 µM; in assay [2], 0.018 µM.
With `CCc1c(N2CCN(C(=O)c3ncnc(C)c3O)CC2)c(=O)n2nc(C3=CCOCC3)nc2n1CC(=O)Nc1ccc(C(F)(F)F)c2scnc12` [WO2025049746, Example 368], the figures for the IC50 in assay [1] and in assay [2] were 0.03 µM and 0.036 µM, respectively.
`CCc1c(N2CCN(C(=O)c3ncnc(C)c3O)CC2)c(=O)n2nc(-c3ccc4c(c3)C[C@@H](C)O4)nc2n1CC(=O)Nc1ccc(C(F)(F)F)cc1Cl` [WO2025049746, Example 231]: the figures for the IC50 in assay [1] and in assay [2] were 0.049 µM and 0.04 µM, respectively.
For `CCc1c(N2CCN(C(=O)c3ncnc(C)c3O)CC2)c(=O)n2nc(-c3ccc4c(c3)CCO4)nc2n1CC(=O)Nc1c(Cl)cc(C(F)(F)F)c2c1CC2` [WO2025049746, Example 383], in that order: 0.074 µM and 0.094 µM.

A word on the IC50: it is the concentration needed to halve the response being measured.
